Measured values: patent publication US8524745B2 (Allergan, Inc., priority 2011, dated 2013)

biological target: T1, CCR2 (Homo sapiens, UniProt P41597); assay: CCR2 calcium activity assay on FLIPR Tetra in HEK-Gqi5 cells stably expressing CCR2; format: cell-based
T1 construct: expressed in transfected cells
T1 sequence (P41597 whole entry, species assumed): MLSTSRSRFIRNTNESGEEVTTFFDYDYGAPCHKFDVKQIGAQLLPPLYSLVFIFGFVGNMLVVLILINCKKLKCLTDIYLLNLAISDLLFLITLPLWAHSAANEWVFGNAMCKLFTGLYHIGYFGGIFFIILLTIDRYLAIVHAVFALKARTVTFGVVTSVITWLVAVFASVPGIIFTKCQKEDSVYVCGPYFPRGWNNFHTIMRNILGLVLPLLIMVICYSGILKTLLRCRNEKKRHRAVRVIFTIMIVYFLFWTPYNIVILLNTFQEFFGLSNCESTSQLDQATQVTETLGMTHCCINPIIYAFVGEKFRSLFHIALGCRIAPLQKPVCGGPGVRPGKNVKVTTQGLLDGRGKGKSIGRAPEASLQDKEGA

| SMILES | CCR2 % ANTAG | IC50 |
| --- | --- | --- |
| Cn1sc(=O)c2cc(S(=O)(=O)Nc3cccc(OC(F)(F)F)c3)ccc21 [1-methyl-3-oxo-N-[3-(trifluoromethoxy)phenyl]-1,3-dihydro-2,1-benzisothiazole-5-sulfonamide] | 92% | 0.92 µM |
| Cn1sc(=O)c2cc(S(=O)(=O)Nc3cccc(Cl)c3)ccc21 [N-(3-chlorophenyl)-1-methyl-3-oxo-1,3-dihydro-2,1-benzisothiazole-5-sulfonamide] | 84% | – |
| Cn1sc(=O)c2cc(S(=O)(=O)Nc3ccccc3NS(=O)(=O)c3cc(C(F)(F)F)cc(C(F)(F)F)c3)ccc21 [N-[2-({[3,5-bis(trifluoromethyl)phenyl]sulfonyl}amino)phenyl]-1-methyl-3-oxo-1,3-dihydro-2,1-benzisothiazole-5-sulfonamide] | 94% | 2.07 µM |
| Cn1sc(=O)c2cc(S(=O)(=O)NCC(C)(C)NS(=O)(=O)c3cccs3)ccc21 [1-methyl-N-{2-methyl-2-[(2-thienylsulfonyl)amino]propyl}-3-oxo-1,3-dihydro-2,1-benzisothiazole-5-sulfonamide] | 30% | – |
| COc1ccc(S(=O)(=O)Nc2cc(Cl)c(Cl)cc2NS(=O)(=O)c2ccc3c(c2)c(=O)sn3C)cc1 [N-(4,5-dichloro-2-{[(4-methoxyphenyl)sulfonyl]amino}phenyl)-1-methyl-3-oxo-1,3-dihydro-2,1-benzisothiazole-5-sulfonamide] | 86% | 1.01 µM |
| Cc1cc(NS(=O)(=O)c2ccc3c(c2)c(=O)sn3C)c(NS(=O)(=O)c2cccs2)cc1C [N-{4,5-dimethyl-2-[(2-thienylsulfonyl)amino]phenyl}-1-methyl-3-oxo-1,3-dihydro-2,1-benzisothiazole-5-sulfonamide] | 91% | 2.19 µM |
| Cn1sc(=O)c2cc(S(=O)(=O)Nc3ccccc3NS(=O)(=O)c3ccoc3)ccc21 [N-{2-[(3-furylsulfonyl)amino]phenyl}-1-methyl-3-oxo-1,3-dihydro-2,1-benzisothiazole-5-sulfonamide] | 73% | – |
| Cn1sc(=O)c2cc(S(=O)(=O)Nc3ccccc3NS(=O)(=O)c3cc(Cl)ccc3Cl)ccc21 [N-(2-{[(2,5-dichlorophenyl)sulfonyl]amino}phenyl)-1-methyl-3-oxo-1,3-dihydro-2,1-benzisothiazole-5-sulfonamide] | 99% | 1.81 µM |
| Cc1ccc(S(=O)(=O)Nc2ccc(Cl)cc2NS(=O)(=O)c2ccc3c(c2)c(=O)sn3C)s1 [N-(5-chloro-2-{[(5-methyl-2-thienyl)sulfonyl]amino}phenyl)-1-methyl-3-oxo-1,3-dihydro-2,1-benzisothiazole-5-sulfonamide] | 95% | 0.497 µM |
| CC(C)Oc1ccc(S(=O)(=O)Nc2ccc(Cl)cc2NS(=O)(=O)c2ccc3c(c2)c(=O)sn3C)cc1 [N-(5-chloro-2-{[(4-isopropoxyphenyl)sulfonyl]amino}phenyl)-1-methyl-3-oxo-1,3-dihydro-2,1-benzisothiazole-5-sulfonamide] | 72% | – |
| Cn1sc(=O)c2cc(S(=O)(=O)Nc3cc4ccccc4cc3NS(=O)(=O)c3cccs3)ccc21 [1-methyl-3-oxo-N-{3-[(2-thienylsulfonyl)amino]-2-naphthyl}-1,3-dihydro-2,1-benzisothiazole-5-sulfonamide] | 96% | 2.18 µM |
| Cn1sc(=O)c2cc(S(=O)(=O)Nc3cc(C(F)(F)F)ccc3NS(=O)(=O)c3cccs3)ccc21 [1-methyl-3-oxo-N-{2-[(2-thienylsulfonyl)amino]-5-(trifluoromethyl)phenyl}-1,3-dihydro-2,1-benzisothiazole-5-sulfonamide] | 103% | 0.701 µM |
| Cn1sc(=O)c2cc(S(=O)(=O)Nc3cc(Cl)ccc3NS(=O)(=O)c3ccc(Cl)c(Cl)c3)ccc21 [N-(5-chloro-2-{[(3,4-dichlorophenyl)sulfonyl]amino}phenyl)-1-methyl-3-oxo-1,3-dihydro-2,1-benzisothiazole-5-sulfonamide] | 97% | 1.29 µM |
| CCOc1ccc(S(=O)(=O)Nc2ccc(Cl)cc2NS(=O)(=O)c2ccc3c(c2)c(=O)sn3C)cc1 [N-(5-chloro-2-{[(4-ethoxyphenyl)sulfonyl]amino}phenyl)-1-methyl-3-oxo-1,3-dihydro-2,1-benzisothiazole-5-sulfonamide] | 84% | 2.79 µM |
| Cn1sc(=O)c2cc(S(=O)(=O)Nc3cc(Br)ccc3NS(=O)(=O)c3cccs3)ccc21 [N-{5-bromo-2-[(2-thienylsulfonyl)amino]phenyl}-1-methyl-3-oxo-1,3-dihydro-2,1-benzisothiazole-5-sulfonamide] | 100% | 0.537 µM |
| Cn1sc(=O)c2cc(S(=O)(=O)N[C@@H]3CCCC[C@H]3NC(=O)c3cccs3)ccc21 (relative stereo) [rel-N-[(1R,2R)-2-{[(1-methyl-3-oxo-1,3-dihydro-2,1-benzisothiazol-5-yl)sulfonyl]amino}cyclohexyl]thiophene-2-carboxamide] | 46% | – |
| Cn1sc(=O)c2cc(S(=O)(=O)Nc3ccccc3NS(=O)(=O)c3ccc(Cl)c(C(F)(F)F)c3)ccc21 [N-[2-({[4-chloro-3-(trifluoromethyl)phenyl]sulfonyl}amino)phenyl]-1-methyl-3-oxo-1,3-dihydro-2,1-benzisothiazole-5-sulfonamide] | 100% | 0.412 µM |
| Cn1sc(=O)c2cc(S(=O)(=O)Nc3cc(Cl)c(Cl)cc3NS(=O)(=O)c3cccs3)ccc21 [N-{4,5-dichloro-2-[(2-thienylsulfonyl)amino]phenyl}-1-methyl-3-oxo-1,3-dihydro-2,1-benzisothiazole-5-sulfonamide] | 99% | 0.361 µM |
| Cc1ccc(S(=O)(=O)Nc2cc(Cl)c(Cl)cc2NS(=O)(=O)c2ccc3c(c2)c(=O)sn3C)s1 [N-(4,5-dichloro-2-{[(5-methyl-2-thienyl)sulfonyl]amino}phenyl)-1-methyl-3-oxo-1,3-dihydro-2,1-benzisothiazole-5-sulfonamide] | 95% | 0.851 µM |
| COc1ccc(NS(=O)(=O)c2cccs2)c(NS(=O)(=O)c2ccc3c(c2)c(=O)sn3C)c1 [N-{5-methoxy-2-[(2-thienylsulfonyl)amino]phenyl}-1-methyl-3-oxo-1,3-dihydro-2,1-benzisothiazole-5-sulfonamide] | 104% | 1.41 µM |
| COc1cccc(S(=O)(=O)Nc2ccc(Cl)cc2NS(=O)(=O)c2ccc3c(c2)c(=O)sn3C)c1 [N-(5-chloro-2-{[(3-methoxyphenyl)sulfonyl]amino}phenyl)-1-methyl-3-oxo-1,3-dihydro-2,1-benzisothiazole-5-sulfonamide] | 83% | 0.402 µM |
| Cn1sc(=O)c2cc(S(=O)(=O)Nc3ccccc3NS(=O)(=O)c3cccc(C(F)(F)F)c3)ccc21 [1-methyl-3-oxo-N-[2-({[3-(trifluoromethyl)phenyl]sulfonyl}amino)phenyl]-1,3-dihydro-2,1-benzisothiazole-5-sulfonamide] | 94% | 2.21 µM |
| Cn1ccc(S(=O)(=O)Nc2ccccc2NS(=O)(=O)c2ccc3c(c2)c(=O)sn3C)n1 [1-methyl-N-(2-{[(1-methyl-1H-pyrazol-3-yl)sulfonyl]amino}phenyl)-3-oxo-1,3-dihydro-2,1-benzisothiazole-5-sulfonamide] | 53% | 1.68 µM |
| COc1ccccc1S(=O)(=O)Nc1ccc(Cl)cc1NS(=O)(=O)c1ccc2c(c1)c(=O)sn2C [N-(5-chloro-2-{[(2-methoxyphenyl)sulfonyl]amino}phenyl)-1-methyl-3-oxo-1,3-dihydro-2,1-benzisothiazole-5-sulfonamide] | 91% | 0.397 µM |
| Cn1sc(=O)c2cc(S(=O)(=O)Nc3cc(Cl)cc4c3OCCO4)ccc21 [N-(7-chloro-2,3-dihydro-1,4-benzodioxin-5-yl)-1-methyl-3-oxo-1,3-dihydro-2,1-benzisothiazole-5-sulfonamide] | 63% | 1.67 µM |
| COc1ccc(C(=O)Nc2ccc(Cl)cc2NS(=O)(=O)c2ccc3c(c2)c(=O)sn3C)cc1 [N-(4-chloro-2-{[(1-methyl-3-oxo-1,3-dihydro-2,1-benzisothiazol-5-yl)sulfonyl]amino}phenyl)-4-methoxybenzamide] | 56% | – |
| CN(C)c1cccc(S(=O)(=O)Nc2ccc(Cl)cc2NS(=O)(=O)c2ccc3c(c2)c(=O)sn3C)c1 [N-[5-chloro-2-({[3-(dimethylamino)phenyl]sulfonyl}amino)phenyl]-1-methyl-3-oxo-1,3-dihydro-2,1-benzisothiazole-5-sulfonamide] | 69% | 0.678 µM |
| Cn1sc(=O)c2cc(S(=O)(=O)Nc3ccc(Cl)c(Cl)c3)ccc21 [N-(3,4-dichlorophenyl)-1-methyl-3-oxo-1,3-dihydro-2,1-benzisothiazole-5-sulfonamide] | 94.08% | 1.18 µM |
| Cn1sc(=O)c2cc(S(=O)(=O)Nc3cc(C(F)(F)F)c(Cl)cc3NS(=O)(=O)c3cccs3)ccc21 [N-{4-chloro-2-[(2-thienylsulfonyl)amino]-5-(trifluoromethyl)phenyl}-1-methyl-3-oxo-1,3-dihydro-2,1-benzisothiazole-5-sulfonamide] | 87% | 0.522 µM |
| Cn1sc(=O)c2cc(S(=O)(=O)NCc3ccccc3NS(=O)(=O)c3cccs3)ccc21 [1-methyl-3-oxo-N-{2-[(2-thienylsulfonyl)amino]benzyl}-1,3-dihydro-2,1-benzisothiazole-5-sulfonamide] | 56% | 2.18 µM |
